Assay results published in US20010034454A1, “Description anti-mitotic agents which inhibit tubulin polymerization” (BYLOR UNIVERSITY AND ARIZONA DESEASE CONTROL RESEARCH …, priority 1998, published 2001).
≈ marks a conversion by molar mass, not a printed value. Read-outs that look alike come from different tables or passages of the source.

Experiments:
[1] = tested on: tubulin; assay: Inhibition of binding of [3H]colchicine to tubulin; conditions: comparator, concentration not given
Text: A measurement of each compound's tubulin affinity may also be determined through the compound's ability to inhibit colchichine-tubulin binding. A suitable assay is that described by Kang et al., involving the use of commercially available tritiated colchicine. Decreases in the amount of [^3H]colchicine-tubulin interaction due to the competitive binding of one of the novel inhibitors of this invention may be measured by autoradiography or scintillation counting.

[2] = tested on: T1, tubulin; assay: Tubulin polymerization assay; assay type: biochemical, bovine
T1 construct: Purified tubulin is obtained from bovine brain cells as described in Hamel and Lin
Description: The ability of the various above described compounds to inhibit tubulin polymerization can be determined by in vitro assay. A suitable assay system is that described by Bai et al. A method for purifying tubulin from bovine brain cells is described by Hamel and Lin.
IC50 values for tubulin polymerization were determined according to the procedure described in Bai et al. Purified tubulin is obtained from bovine brain cells as described in Hamel and Lin. Various amounts of inhibitor were preincubated for 15 minutes at 37° C. with purified tubulin. After the incubation period, the reaction was cooled and GTP was added to induce tubulin polymerization. Polymerization was then monitored in a Gilford spectrophotometer at 350 nm. The final reaction mixtures (0.25 ml) contained 1.5 mg/ml tubulin, 0.6 mg/ml microtubule-associated proteins (MAPs), 0.5 mM GTP, 0.5 mM MgCl2, 4% DMSO and 0.1 M 4-morpholineethanesulfonate buffer (MES, pH 6.4). […]

[3] = tested on: SW1736; assay: Human cancer cell line studies, SW1736; assay type: cell-based; conditions: Homo sapiens, SW-1736; Thyroid ca SW1736; read-out: GI50
Description: (§1) The assay used is described in Monks et al. Briefly, the cell suspensions, diluted according to tho particular cell type and the expected target cell density (5,000-40,000 cells per well based on cell growth characteristics), were added by pipet (100 μl) to 96-well microtiter plates. Inoculates were allowed a preincubation time of 24-28 hours at 37° C. for stabilization. Incubation with the inhibitor compounds lasted for 48 hours in 5% CO2 atmosphere and 100% humidity. Determination of cell growth was done by in situ fixation of cells, followed by staining with a protein-binding dye, sulforhodamine B (SRB), which binds to the basic amino acids of cellular macromolecules. The solubilized stain was measured spectrophotometrically.

[4] = tested on: NCI-H460; assay: Growth inhibitory activity, human cancer cell line NCI-H460 (SRB); assay type: cell-based; conditions: Lung-NSC NCI-H460
Description: as §1

[5] = tested on: SK-N-SH; assay: Human cancer cell line studies, SK-N-SH; assay type: cell-based; conditions: Homo sapiens; Neuroblast SK-N-SH; read-out: GI50
Description: as §1

[6] = tested on: BXPC-3; assay: Human cancer cell line studies, BXPC-3; assay type: cell-based; conditions: Pancreas adn BXPC-3
Description: as §1

[7] = tested on: FADU; assay: Human cancer cell line studies, FADU; assay type: cell-based; conditions: Pharynx-sqam FADU
Description: as §1

[8] = tested on: P388 leukemia cells; assay: Cytotoxic assay with P388 leukemia cells; assay type: cell-based, mouse
Text: The tubulin polymerization compounds can also be tested for their ability to inhibit tumor cell growth.

[9] = tested on: DU-145; assay: Human cancer cell line studies, DU-145; assay type: cell-based; conditions: Prostate DU-145
Description: as §1

[10] = tested on: U251; assay: Human cancer cell line studies, U251; assay type: cell-based; conditions: CNS U251
Description: as §1, with “3-(3′,4′,5′-Trimethoxybenzoyl)-2-(4′-methoxyphenyl)-6-methoxybenzo[b]-thiophene was evaluated in terms of growth inhibitory activity against several human cancer cell lines, including ovarian CNS, renal, lung, colon and melanoma lines. The assay” for “The assay”

[11] = tested on: RPMI-7951; assay: Human cancer cell line studies, RPMI-7951; assay type: cell-based; conditions: Melanoma RPMI-7951
Description: as §1, with “3-(3′,4′,5′-Trimethoxybenzoyl)-2-(4′-methoxyphenyl)-6-methoxybenzo[b]-thiophene was evaluated in terms of growth inhibitory activity against several human cancer cell lines, including ovarian CNS, renal, lung, colon and melanoma lines. The assay” for “The assay”

[12] = P388 mouse leukemia, dosage required to inhibit 50% of cell growth, read-out: ED50 (the source's name)
[13] = purified tubulin […], GTP-induced, 350 nm, final steady-state number for compounds other than 1A and 10A, read-out: IC50 for inhibition of tubulin polymerization
[14] = Homo sapiens, U-251, read-out: GI50
[15] = P388 mouse leukemia, dosage required to inhibit 50% of cell growth
[16] = Mus musculus, P388, read-out: ED50

| SMILES | GI50 ([4]; Homo sapiens, read-out: GI50) [µg/mL] | GI50 ([6]; Homo sapiens, read-out: GI50) [µg/mL] | GI50 ([7]; Homo sapiens, read-out: GI50) [µg/mL] | IC50 [8, 12] [µg/mL] | GI50 ([9]; Homo sapiens, read-out: GI50) [µg/mL] | GI50 [10, 14] [µg/mL] | GI50 ([11]; Homo sapiens, read-out: GI50) [µg/mL] | also measured |
| --- | --- | --- | --- | --- | --- | --- | --- | --- |
| COc1ccc(/C=C\c2cc(OC)c(OC)c(OC)c2)cc1O [Combretastatin A-4, reference compound] |  |  |  |  |  |  |  | inhibition of the binding of [3H]colchicine to tubulin [1]: total inhibition; IC50 ([2]; read-out: 50% inhibition of the maximum tubulin assembly rate, inhibition of rate rather than steady state): […] |
| COc1ccc(-c2sc3cc(OC)ccc3c2C(=O)c2cc(OC)c(OC)c(OC)c2)cc1 [Compound 1A, 3-(3′,4′,5′-trimethoxybenzoyl)-2-(4′-methoxyphenyl)-6-methoxybenzo[b]thiophene] |  |  |  |  |  |  |  | melting point: 131 to 133 °C |
| COc1ccc(-c2sc3cc(OC)ccc3c2C(=O)c2ccc(OC)c(OC)c2)cc1 [Compound 4A, 3-(3′,4′-dimethoxybenzoyl)-2-(4′-methoxyphenyl)-6-methoxybenzo[b]thiophene] | 4.6 (≈ 10.6 µM) | 5.2 (≈ 12 µM) | 4.7 (≈ 10.8 µM) | > 10 | > 10 |  |  | GI50 [3]: > 10 µg/mL; GI50 [5]: 3.2 µg/mL (≈ 7.36 µM); IC50 [2, 13]: > 40000 nM |
| COc1ccc(C(=O)c2c(-c3ccc(OC)cc3)sc3cc(OC)ccc23)cc1 [Compound 5A, 3-(4′-methoxybenzoyl)-2-(4′-methoxyphenyl)-6-methoxybenzo[b]thiophene] | > 10 | 8.9 (≈ 22 µM) | > 10 | > 100 | > 10 | > 10 | > 10 |  |
| CCOc1ccc(C(=O)c2c(-c3ccc(OC)cc3)sc3cc(OC)ccc23)cc1 [Compound 6A, 3-(4′-ethoxybenzoyl)-2-(4′-methoxyphenyl)-6-methoxybenzo[b]thiophene] | 2.4 (≈ 5.73 µM) | 0.65 (≈ 1.55 µM) | 0.48 (≈ 1.15 µM) | > 100 | 3.9 (≈ 9.32 µM) | 0.43 (≈ 1.03 µM) | 3.2 (≈ 7.65 µM) |  |
| CCOc1cc(C(=O)c2c(-c3ccc(OC)cc3)sc3cc(OC)ccc23)cc(OCC)c1OCC [Compound 7A, 3-(3′,4′,5′-triethoxybenzoyl)-2-(4′-methoxyphenyl)-6-methoxybenzo[b]thiophene] | > 10 | > 10 | > 10 | > 100 | > 10 | > 10 | > 10 |  |
| COc1ccc(-c2sc3cc(OC)ccc3c2C(=O)CCc2cc(OC)c(OC)c(OC)c2)cc1 [Compound 8A, 3-[3′-(3′,4′,5′-trimethoxyphenyl)propionyl]-2-(4′-methoxyphenyl)-6-methoxybenzo[b]thiophene] |  |  |  |  |  |  |  | GI50 [10]: 4.5 µg/mL (≈ 9.14 µM); GI50 [4]: 3.8 µg/mL (≈ 7.71 µM); GI50 [11]: >10 µg/mL; GI50 [6]: >10 µg/mL; GI50 [7]: 9.1 µg/mL (≈ 18.5 µM); ED50 [8, 15]: >10 µg/mL; GI50 [9]: >10 µg/mL |
| CCOc1ccc(-c2sc3cc(OCC)ccc3c2C(=O)c2cc(OCC)c(OCC)c(OCC)c2)cc1 [Compound 9A, 3-(3′,4′,5′-triethoxybenzoyl)-2-(4′-ethoxyphenyl)-6-ethoxybenzo[b]thiophene] | > 10 | > 10 | > 10 | > 10 | > 10 | > 10 | > 10 |  |
| COc1ccc(-c2sc3cc(OC)ccc3c2C(=O)Cc2ccccc2)cc1 [Compound 20A, 3-(phenylacetyl)-2-(4′-methoxyphenyl)-6-methoxybenzo[b]thiophene] | > 10 | > 10 | 9.2 (≈ 23.7 µM) | > 10 | > 10 | > 10 | > 10 |  |
| COc1ccc(-c2sc3cc(OC)ccc3c2C(=O)Cc2cc(OC)c(OC)c(OC)c2)cc1 [Compound 21A] |  |  |  |  |  |  |  | GI50 [10]: >10 µg/mL; GI50 [4]: >10 µg/mL; GI50 [11]: >10 µg/mL; GI50 [6]: 9.8 µg/mL (≈ 20.5 µM); GI50 [7]: 7.9 µg/mL (≈ 16.5 µM); ED50 [8, 15]: >10 µg/mL; GI50 [9]: >10 µg/mL |
| COc1ccc(-c2sc3cc(OC)ccc3c2Oc2cc(OC)c(OC)c(OC)c2)cc1 [Compound 23B, 3-(3′,4′,5′-trimethoxyphenoxy)-2-(4′-methoxyphenyl)-6-methoxybenzo[b]thiophene] | 0.31 (≈ 0.685 µM) | 0.23 (≈ 0.508 µM) | 0.098 (≈ 0.217 µM) |  | 0.42 (≈ 0.928 µM) |  |  | GI50 [3]: 0.73 µg/mL (≈ 1.61 µM); GI50 [5]: 0.063 µg/mL (≈ 0.139 µM); IC50 [8, 16]: 3.09 µg/mL (≈ 6.83 µM); IC50 [2, 13]: 1400 nM |
| COc1ccc(/C=C\c2cc(OC)c(OC)c(OC)c2)cc1N=[N+]=[N-] [Compound 34E, (Z)-1-(3′azido-4′-methoxyphenyl)-2-(3″,4″,5″-trimethoxyphenyl)ethene] | 0.0056 (≈ 0.0164 µM) | 0.005 (≈ 0.0146 µM) | 0.0076 (≈ 0.0223 µM) |  | 0.0091 (≈ 0.0267 µM) |  |  | GI50 [3]: 1.2 µg/mL (≈ 3.52 µM); GI50 [5]: 0.0033 µg/mL (≈ 0.00967 µM); IC50 [8, 16]: 0.0384 µg/mL (≈ 0.112 µM); IC50 [2, 13]: 1300 nM |
